# US12521393B2, “Cytotoxicity targeting chimeras for CCR2-expressing cells” (GLAXOSMITHKLINE INTELLECTUAL PROPERTY DEVELOPMENT LIMITED, priority 2021, dated 2026)
# Experiments:
# [1] = tested on: endogenous target monocytes in human PBMC; experiment: PBMC ex vivo monocyte depletion flow cytometry assay (Example 200); type: cell-based; settings: with anti-cotinine antibody (SEQ ID NO: 11/12), 18-24 hours, EC50 in molar, read-out: Ex Vivo Depletion Assay pEC50 (converted)
# How it was run: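 Monocyte depletion is reported as pEC50, averaged or given individually across runs, and read by flow cytometry staining CD45, CD14 and CD4 with a viability dye. Compounds, diluted four-fold over 11 points from 1 mM DMSO stocks, were combined with 30 μg/mL Fc-enhanced anti-cotinine antibody and human PBMC, then incubated 18-24 h at 37° C.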
# [2] = target: anti-cotinine antibody (SEQ ID NO: 11/12, rabbit variable region with human IgG1 Fc DE mutation); experiment: SPR binding of anti-cotinine antibody to ARM compounds, Biacore T200, 37° C. (Example 202); settings: SPR Biacore T200, 37° C., pH 7.4, antibody SEQ ID NO: 11/12 captured on protein A; Kd in molar
# Procedure: Anti-cotinine antibodies having a heavy chain sequence of SEQ ID NO: 11 and a light chain sequence of SEQ ID NO: 12 (rabbit variable region with human IgG1 Fc domain containing a DE mutation (S239D/1332E)) were captured on one or more flow cells of a protein A sensor chip (Cytiva) using a Biacore T200 while reserving flow cell 1 as a reference. Following capture, a 3000 second wait step was included to reduce drift during compound analysis. ARM compounds of Formula (I) were then injected at 100 μL/min with 200 and 2000 second association and dissociation times. The entire experiment was run at 37° C. with running buffer containing 10 mM HEPES pH 7.4, 150 mM NaCl, 0.005% P20 and 1% DMSO. ARM compounds of Formula (I) were titrated with a top concentration of 200 nM using a 3-fold 5-point dilution series and a corresponding 5-injection buffer cycle was run for blank subtraction. Data were double referenced by subtracting the response of the reference flow cell from that of the antibody-containing flow cell and subsequently subtracting the referenced blank sensorgrams. Following compound analysis, the surface was regenerated using a 30 second injection of pH 1.5 glycine at a flow rate of 30 μL/min after which antibody was re-captured. The experiment was run using Biacore T200 control software and evaluated using Biacore T200 Evaluation software. Curves were fit with a 1:1 kinetic binding model to obtain kon (1/Ms), koff(1/s), Kd (M) determined as koff/kon, and residence time determined as 1/koff (s).
# Anti-cotinine antibody was tested for binding to ARMs compounds of Formula (I) of the invention in the above assay in or more experimental runs and the results are shown in Table 5 below. Affinity is reported as a pKd value. The pKd value is the negative log of the Kd value, wherein the Kd value is the dissociation constant measured in molar (M) as noted above. For compounds tested in more than one experimental run, the pKd value is reported as an average
SMILES,EC50 [1],pKd of Antibody for ARM Compound of Formula (I) [2]
"CC(C)N(C)[C@@H]1CCC(N2CC[C@H](Nc3ncnc4ccc(C(F)(F)F)cc34)C2=O)[C@H](NC(=O)CCOCCOCCOCCOCCOCCOCCOCCOCCNC(=O)[C@H]2CC(=O)N(C)[C@@H]2c2cccnc2)C1 (stereo partly drawn) [Example 42, (2S,3S)-N-(27-(((1R,2S,5R)-5-(isopropyl(methyl)amino)-2-((S)-2-oxo-3-((6-(trifluoromethyl)quinazolin-4-yl)amino)pyrrolidin-1-yl)cyclohexyl)amino)-27-oxo-3,6,9,12,15,18,21,24-octaoxaheptacosyl)-1-methyl-5-oxo-2-(pyriidn-3-yl)pyrrolidine-3-carboxamide]",3.16 nM,9.23
"CC(C)N(C)[C@@H]1CC[C@H](N2CC[C@H](Nc3ncnc4ccc(C(F)(F)F)cc34)C2=O)[C@H](NC(=O)COCCNC(=O)CCOCCOCCNC(=O)CCNC(=O)[C@H]2CC(=O)N(C)[C@@H]2c2cccnc2)C1 [Example 50, (2S,3S)-N-(1-(((1R,2S,5R)-5-(Isopropyl(methyl)amino)-2-((S)-2-oxo-3-((6-(trifluromethyl)quinazolin-4-yl)amino)pyrrolidin-1-yl)cyclohexyl)amino)-1,7,17-trioxo-3,10,13-trioxa-6,16-diazanonadecan-19-yl)-1-methyl-5-oxo-2-(pyridin-3-yl)pyrrolidine-3-carboxamide]",0.126 nM,9.1485
"CC(C)N(C)[C@@H]1CC[C@H](N2CC[C@H](Nc3ncnc4ccc(C(F)(F)F)cc34)C2=O)[C@H](NC(=O)[C@H]2C[C@H](NC(=O)CCOC[C@H]3CC[C@H](COCCNC(=O)[C@H]4CC(=O)N(C)[C@@H]4c4cccnc4)CC3)C2)C1 [Example 54, (2S,3S)-N-(2-(((1R,4S)-4-((3-(((1R,3R)-3-(((1R,2S,5R)-5-(Isopropyl(methyl)amino)-2-((S)-2-oxo-3-((6-(trifluoromethyl)quinazolin-4-yl)amino)pyrrolidin-1-yl)cyclohexyl)carbamoyl)cyclobutyl)amino)-3-oxopropoxy)methyl)cyclohexyl)methoxy)ethyl)-1-methyl-5-oxo-2-(pyridin-3-yl)pyrrolidine-3-carboxamide]",1 nM,9.5515
"CN1C(=O)C[C@H](C(=O)NCC(=O)NCCOCCOCCC(=O)N[C@H]2CC[C@@H](C(=O)N[C@@H]3C[C@H](NC(C)(C)C)CC[C@@H]3N3CC[C@H](Nc4ncnc5ccc(C(F)(F)F)cc45)C3=O)CC2)[C@H]1c1cccnc1 [Example 65, (2S,3S)-N-(2-((2-(2-(3-(((1S,4s)-4-(((1R,2S,5R)-5-(tert-Butylamino)-2-((S)-2-oxo-3-((6-(trifluoromethyl)quinazolin-4-yl)amino)pyrrolidin-1-yl)cyclohexyl)carbamoyl)cyclohexyl)amino)-3-oxopropoxy)ethoxy)ethyl)amino)-2-oxoethyl)-1-methyl-5-oxo-2-(pyridin-3-yl)pyrrolidine-3-carboxamide]",100000 nM,8.648
"CC(C)N(C)[C@@H]1CC[C@H](N2CC[C@H](Nc3ncnc4ccc(C(F)(F)F)cc34)C2=O)[C@H](NC(=O)[C@H]2C[C@@H](NC(=O)CCOCCOCCNC(=O)CNC(=O)[C@H]3CC(=O)N(C)[C@@H]3c3cccnc3)C2)C1 [Example 66, (2S,3S)-N-(2-((2-(2-(3-(((1S,3s)-3-(((1R,2S,5R)-5-(Isopropyl(methyl)amino)-2-((S)-2-oxo-3-((6-(trifluoromethyl)quinazolin-4-yl)amino)pyrrolidin-1-yl)cyclohexyl)carbamoyl)cyclobutyl)amino)-3-oxopropoxy)ethoxy)ethyl)amino)-2-oxoethyl)-1-methyl-5-oxo-2-(pyridin-3-yl)pyrrolidine-3-carboxamide]",0.631 nM,8.649
"CC(C)N(C)[C@@H]1CC[C@H](N2CC[C@H](Nc3ncnc4ccc(C(F)(F)F)cc34)C2=O)[C@H](NC(=O)COCCOCCNC(=O)COCCNC(=O)CCNC(=O)[C@H]2CC(=O)N(C)[C@@H]2c2cccnc2)C1 [Example 74, (2S,3S)-N-(1-(((1R,2S,5R)-5-(isopropyl(methyl)amino)-2-((S)-2-oxo-3-((6-(trifluoromethyl)quinazolin-4-yl)amino)pyrrolidin-1-yl)cyclohexyl)amino)-1,10,16-trioxo-3,6,12-trioxa-9,15-diazaoctadecan-18-yl)-1-methyl-5-oxo-2-(pyridin-3-yl)pyrrolidine-3-carboxamide]",100000 nM,9.091
"CC(C)N(C)[C@@H]1CC[C@H](N2CC[C@H](Nc3ncnc4ccc(C(F)(F)F)cc34)C2=O)[C@H](NC(=O)CCOCCOCCNC(=O)COCCNC(=O)CCNC(=O)[C@H]2CC(=O)N(C)[C@@H]2c2cccnc2)C1 [Example 75, (2S,3S)-N-(19-(((1R,2S,5R)-5-(Isopropyl(methyl)amino)-2-((S)-2-oxo-3-((6-(trifluoromethyl)quinazolin-4-yl)amino)pyrrolidin-1-yl)cyclohexyl)amino)-3,9,19-trioxo-7,13, 16-trioxa-4, 10-diazanonadecyl)-1-methyl-5-oxo-2-(pyridin-3-yl)pyrrolidine-3-carboxamide]",1 nM,9.103
"CC(C)N(C)[C@@H]1CC[C@H](N2CC[C@H](Nc3ncnc4ccc(C(F)(F)F)cc34)C2=O)[C@H](NC(=O)COCCNC(=O)CCNC(=O)COCCOCCNC(=O)[C@H]2CC(=O)N(C)[C@@H]2c2cccnc2)C1 [Example 79, (2S,3S)-N-(18-(((1R,2S,5R)-5-(Isopropyl(methyl)amino)-2-((S)-2-oxo-3-((6-(trifluoromethyl)quinazolin-4-yl)amino)pyrrolidin-1-yl)cyclohexyl)amino)-8,12,18-trioxo-3,6,16-trioxa-9,13-diazaoctadecyl)-1-methyl-5-oxo-2-(pyridin-3-yl)pyrrolidine-3-carboxamide]",3.16 nM,9.126
"CN1C(=O)C[C@H](C(=O)NCCOCC(=O)NCCOCC(=O)NCCOCCC(=O)N[C@@H]2C[C@H](NC(C)(C)C)CC[C@@H]2N2CC[C@H](Nc3ncnc4ccc(C(F)(F)F)cc34)C2=O)[C@H]1c1cccnc1 [Example 103, (2S,3S)-N-(18-(((1R,2S,5R)-5-(tert-Butylamino)-2-((S)-2-oxo-3-((6-(trifluoromethyl)quinazolin-4-yl)amino)pyrrolidin-1-yl)cyclohexyl)amino)-5,11,18-trioxo-3,9,15-trioxa-6, 12-diazaoctadecyl)-1-methyl-5-oxo-2-(pyridin-3-yl)pyrrolidine-3-carboxamide]",100000 nM,9.0985
"CC(C)N(C)[C@@H]1CC[C@H](N2CC[C@H](Nc3ncnc4ccc(C(F)(F)F)cc34)C2=O)[C@H](NC(=O)COCCNC(=O)CCOCCNC(=O)COCCNC(=O)[C@H]2CC(=O)N(C)[C@@H]2c2cccnc2)C1 [Example 104, (2S,3S)-N-(18-(((1R,2S,5R)-5-(Isopropyl(methyl)amino)-2-((S)-2-oxo-3-((6-(trifluoromethyl)quinazolin-4-yl)amino)pyrrolidin-1-yl)cyclohexyl)amino)-5,12,18-trioxo-3,9,16-trioxa-6,13-diazaoctadecyl)-1-methyl-5-oxo-2-(pyridin-3-yl)pyrrolidine-3-carboxamide]",0.631 nM,9.051
"CC(C)N(C)[C@@H]1CC[C@H](N2CC[C@H](Nc3ncnc4ccc(C(F)(F)F)cc34)C2=O)[C@H](NC(=O)COCCNC(=O)[C@H]2CC[C@@H](NC(=O)CCOCCNC(=O)[C@H]3CC(=O)N(C)[C@@H]3c3cccnc3)CC2)C1 [Example 109, (2S,3S)-N-(2-(3-(((1S,4R)-4-((2-(2-(((1R,2S,5R)-5-(Isopropyl(methyl)amino)-2-((S)-2-oxo-3-((6-(trifluoromethyl)quinazolin-4-yl)amino)pyrrolidin-1-yl)cyclohexyl)amino)-2-oxoethoxy)ethyl)carbamoyl)cyclohexyl)amino)-3-oxopropoxy)ethyl)-1-methyl-5-oxo-2-(pyridin-3-yl)pyrrolidine-3-carboxamide]",0.631 nM,8.951
